Values joined by “and” are separate entries in the source; they are usually repeats but may differ in a detail not shown here. Identical values can stand only once.
Tested on: 242566-281-R-J2-PDC complex spheroid viability
Assay: Anticancer human tumor 242566-281-R-J2-PDC patient-derived pancreatic carcinoma cell line growth inhibition [CLK]
Settings: for viability, T/C: stronger effect = lower value
Description: A high-throughput screen of multi-cell type tumor spheroids was designed to identify active combinations of […] and targeted small molecules. Complex spheroids include a stromal component modeled by human endothelial cells (HUVEC) and fibroblasts modeled by human mesenchymal stem cells (MSCs). The concentration ranges selected for each drug and investigational agent were based upon clinically achievable concentrations if the clinical Cmax of the agent was known.
Compounds. The drugs and investigational agents: cirtuvivint (SM08502; NSC835563), CC-671 (NSC850746), vemurafenib (NSC761431), tapotoclax (NSC804041), sotorasib (NSC818433), adagrasib (NSC831453), MRTX-1133 (NSC836407), BAY2416964 (NSC825713), copanlisib (NSC816437), inavolisib (NSC800729), abemaciclib (NSC768073), osimertinib (NSC779217), entinostat (NSC756642), eltanexor (KPT-8602, NSC794443), venetoclax (NSC766270), ceralasertib (NSC777638), bortezomib (NSC756655), olaparib (NSC753686), talazoparib (NSC767125), alisertib (NSC759677), peposertib (NSC802822), gemcitabine (NSC613327), 5-fluorouracil (NSC19893), SN-38 (NSC673596), oxaliplatin (NSC266046), paclitaxel (NSC125973), and doxorubicin (NSC123127), were obtained from the National Cancer Institute (NCI) Developmental Therapeutics Program Chemical Repository. The FDA-approved anticancer drug set is available from the Developmental Therapeutics Program at https://dtp.cancer.gov/organization/dscb/obtaining/available plates.htm. […] The stock solutions were prepared in dimethyl sulfoxide (DMSO, Sigma-Aldrich, St. Louis, MO, cat. D2650), except for the platinum complexes which were prepared in saline (Quality Biological, Gaithersburg, MD, cat. 114-055-101), at 800-fold the tested concentration and stored at -70 degrees C prior to their use. All drugs and investigational agents were tested over a range starting from a high concentration at or near the clinical Cmax and decreasing in half-log increments. If the clinical Cmax for an agent had not been determined, the highest concentration tested was 10 microM.
Cell Culture. All cells were maintained in an incubator at 37 degrees C and 5% CO2 with 95% humidity. The PDC lines were cultured according to standard operating procedures established by the NCI PDMR. Briefly, all PDCs were thawed and cultured in Matrigel-coated flasks prepared with a working solution of 1X Ham's F-12 nutrient mix, without supplementation (Invitrogen, Waltham, MA, cat. 11765054), 100 U/mL penicillin-streptomycin (Invitrogen, cat. 15140122), and 2.5% Matrigel (Corning Inc., Corning, NY, cat. 354248) for the first three passages. The 947758-054-R-J2-PDC line was cultured in 6B/Colon 1A media, which includes advanced DMEM/F-12 (Thermo Fisher Scientific, cat. 12634028), 10 mM HEPES (Thermo Fisher Scientific, cat. 15630080), 1X GlutaMAX supplement (Thermo Fisher Scientific, cat. 35050061), 0.1 mg/mL primocin (InvivoGen, cat. ant-pm-2), 10% defined fetal bovine serum, heat inactivated (HyClone Laboratories Inc., cat. SH30070.03HI), 1.25 mM N-Acetyl-L-cysteine (Sigma-Aldrich, cat. A9165), 10 mM nicotinamide (Sigma-Aldrich, cat. N0636), 1X B-27 supplement (Thermo Fisher Scientific, cat. 17504044), 1X N-2 supplement (Thermo Fisher Scientific, cat. 17502048), and 10 microM Y-27632 dihydrochloride (Tocris Bioscience, cat. 1254). The 876862-298-R-J1-PDC was cultured in 6E media, which includes all 6B/Colon 1A media components plus 50% L-WRN conditioned media (ATCC, cat. CRL-3276), 50 ng/mL recombinant human EGF recombinant protein (hEGF; Thermo Fisher Scientific, cat. PHG0311), 10 ng/mL recombinant human fibroblast growth factor 10 (hGFG-10; PeproTech, cat. 100-26), 1 ng/mL recombinant human fibroblast growth factor 2 (hFGF-2; PeproTech, cat. 100-18B), and 1 µM prostaglandin E2 (PGE2; Tocris, cat. 2296). The 227483-062-R1-J1-PDC line was cultured in Panc media, containing all 6E components except hFGF-2, with the addition of 500 nM SB-431542 (Selleckchem, cat. S1067) and 10 nM gastrin (Tocris, cat. 3006). […]
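Also: spheroids exposed to compounds for 7 days before readout.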
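For viability, T/C in this document: 100% = DMSO vehicle control wells.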

Structure (SMILES) | viability, T/C (compound 0.00316 µM) | viability, T/C (compound 0.01 µM) | viability, T/C (compound 0.0316 µM) | viability, T/C (compound 0.1 µM) | viability, T/C (compound 0.316 µM) | viability, T/C (compound 1 µM) | IC50 (curve of compound) | viability, T/C (compound 3.16 µM) | viability, T/C (compound 10 µM) | IC50 (compound alone, run of 07/31/2023) | viability, T/C (compound 0.000316 µM) | viability, T/C (compound 0.001 µM) | viability, T/C (compound 0.00949 µM) | viability, T/C (compound 0.03 µM) | viability, T/C (compound 0.0949 µM) | viability, T/C (compound 0.3 µM) | viability, T/C (compound 0.949 µM) | viability, T/C (compound 3 µM)
CCN1CCN(Cc2ccc(Nc3ncc(F)c(-c4cc(F)c5nc(C)n(C(C)C)c5c4)n3)nc2)CC1 | 102% and 83% | 102% and 94.6% | 90.6% and 95.6% | 103% and 89% | 118% and 100% | 132% and 152% | > 1000 nM |  |  |  |  |  |  |  |  |  |  | 
CCc1c2c(nc3ccc(O)cc13)-c1cc3c(c(=O)n1C2)COC(=O)[C@]3(O)CC | 87.2% and 108% | 56.3% and 60% | 30.8% and 39% | 12.3% and 15.7% | 5.72% and 5.99% | 2.95% and 2.38% | 13.4 nM and 16.9 nM |  |  |  |  |  |  |  |  |  |  | 
CN1CCN(c2cc(C(=O)Nc3cc4cc(-c5cnn(C)c5)ccc4cn3)ccn2)CC1 |  |  | 101% [middle of 12 runs] | 90.2% [middle of 12 runs] |  | 4.87% [middle of 12 runs] |  | 7.54% [middle of 12 runs] | 1.65% [middle of 11 runs] | 230 nM [middle of 12 runs] |  |  |  |  |  |  |  | 
COC1C=CCC(C)C(C)S(=O)(=O)NC(=O)c2ccc3c(c2)N(CC2CCC21)CC1(CCCc2cc(Cl)ccc21)CO3 (stereo unspecified) |  |  | 91.1% and 108% | 69.8% and 78.5% | 82.5% and 70.2% | 92.6% and 93.4% | 5740 nM and 6430 nM | 82.5% and 81.2% | 19.6% and 30.2% |  |  |  |  |  |  |  |  | 
COc1c(OCCCN2CCOCC2)ccc2c3n(c(=NC(=O)c4cnc(N)nc4)nc12)CCN3 | 86.1% and 72.8% | 73.2% and 74.1% | 44.2% and 56.4% | 21.8% and 30.8% | 12.3% and 19.2% | 6.02% and 16.4% | 25.8 nM and 43.2 nM |  |  |  |  |  |  |  |  |  |  | 
Cn1ncnc1[C@H]1c2n[nH]c(=O)c3cc(F)cc(c23)N[C@@H]1c1ccc(F)cc1 | 111% and 107% | 107% and 91% | 96.3% and 95.3% | 87.1% and 99.8% |  |  | > 100 nM |  |  |  | 106% and 93.2% | 93.8% and 102% |  |  |  |  |  | 
NC(=O)C(=Cn1cnc(-c2cc(C(F)(F)F)cc(C(F)(F)F)c2)n1)c1cncnc1 |  |  |  |  |  |  | 1190 nM and > 3000 nM |  |  |  |  |  | 108% and 96.6% | 103% | 99.7% and 142% | 99% and 152% | 55.8% and 101% | 25.7% and 58.9%
Nc1ccccc1NC(=O)c1ccc(CNC(=O)OCc2cccnc2)cc1 |  |  | 97.8% and 80.4% | 82% and 115% | 98.7% and 85.3% | 84.6% and 107% | 4640 nM and 8460 nM | 68% and 110% | 14.5% and 41.5% |  |  |  |  |  |  |  |  | 
Nc1ccn(C2OC(CO)C(O)C2(F)F)c(=O)n1 (stereo unspecified) |  |  | 39.5% and 87% | 16.9% and 43.3% | 11.7% and 21.3% | 9.16% and 13.8% | < 31.6 nM and 83.9 nM | 7.63% and 10.3% | 6.49% and 9.77% |  |  |  |  |  |  |  |  | 
O=C(c1cc(Cc2n[nH]c(=O)c3ccccc23)ccc1F)N1CCN(C(=O)C2CC2)CC1 |  |  | 107% and 93.5% | 97.4% and 85.4% | 96.3% and 82.3% | 102% and 94.1% | > 10000 nM | 87.1% and 111% | 72.5% and 75.4% |  |  |  |  |  |  |  |  | 
O=c1[nH]cc(F)c(=O)[nH]1 |  |  | 103% and 83.7% | 104% and 86% | 95.3% and 77.2% | 67.9% and 91.2% | > 10000 nM | 56.6% and 65% | 52.4% and 53.3% |  |  |  |  |  |  |  |  | 

Reference: PubChem BioAssay AID2060622 (Molecular Pharmacology Branch, DTP, NCI, 2025)
